From patent US20130023553A1, “PEGYLATED OPIOIDS WITH LOW POTENTIAL FOR ABUSE AND SIDE EFFECTS” (Nektar Therapeutics, priority 2010, published 2013)
Like-named read-outs stand apart in the source and are kept apart here.

How the values were obtained:
[1] = Pharmacokinetics following oral (PO) dosing; assay type: in vivo, Sprague-Dawley rats; settings: male, Sprague-Dawley, rat, plasma; for Cmax: read-out: Cmax; for Tmax: read-out: Tmax (converted)
From the text: (§1) There were 3 rats/group. All animals were food fasted overnight. […] The predose sample was collected from the JVC.
(§2) Following the last collection point, the animals were euthanized.

[2] = Pharmacokinetics following intravenous (IV) dosing; assay type: in vivo, Sprague-Dawley rats; settings: male, Sprague-Dawley, rat, plasma; for Cmax: read-out: Cmax; for Vd: read-out: Vss
From the text: as §1, §2

human mu opioid receptor [3] = target: T1, human mu opioid receptor (Homo sapiens, UniProt P35372); experiment: cell-based; settings: for Emax: maximal response at the highest tested concentration, read-out: % max effect, mu opioid receptor; for EC50: read-out: EC50, mu opioid receptor
T1 construct: expressed in transfected cells; host or cells: CHO cells
T1 sequence (P35372 whole entry): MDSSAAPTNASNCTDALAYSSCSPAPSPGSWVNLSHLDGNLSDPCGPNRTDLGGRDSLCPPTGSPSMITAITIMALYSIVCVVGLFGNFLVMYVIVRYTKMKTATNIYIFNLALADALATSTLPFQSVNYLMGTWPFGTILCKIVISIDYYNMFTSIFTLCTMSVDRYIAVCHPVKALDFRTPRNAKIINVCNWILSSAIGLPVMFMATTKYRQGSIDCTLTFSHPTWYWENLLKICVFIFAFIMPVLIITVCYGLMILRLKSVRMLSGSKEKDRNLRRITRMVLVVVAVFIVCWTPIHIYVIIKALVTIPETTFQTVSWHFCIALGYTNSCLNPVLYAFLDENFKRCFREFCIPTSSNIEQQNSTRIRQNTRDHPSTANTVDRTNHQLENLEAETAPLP
Procedure: (§3) Studies were conducted in CHO cells heterologously expressing the cloned human mu, kappa or delta opioid receptors. cAMP was measured using a cAMP HiRange homogenous time-resolved fluorescence assay (HTRF Assay), that is based on a competitive immunoassay principle (Cisbio, Cat.#62AM6PEC).
(§4) Briefly, suspensions of cells expressing either the mu, kappa or delta opioid receptors were prepared in buffer containing 0.5 mM isobutyl-methyl xanthine (IBMX). […] EC50 values were calculated for each compound from a sigmoidal dose-response plot of concentrations versus maximum response. To determine if the compounds behaved as full or partial agonists in the system, the maximal response at the highest tested concentrations of compounds were compared to that produced by a known full agonist.

[4] = target: T2, human kappa opioid receptor (Homo sapiens, UniProt P41145); experiment: biochemical; assay type: binding
T2 construct: expressed in transfected cells; host or cells: CHO cells
T2 sequence (P41145 whole entry): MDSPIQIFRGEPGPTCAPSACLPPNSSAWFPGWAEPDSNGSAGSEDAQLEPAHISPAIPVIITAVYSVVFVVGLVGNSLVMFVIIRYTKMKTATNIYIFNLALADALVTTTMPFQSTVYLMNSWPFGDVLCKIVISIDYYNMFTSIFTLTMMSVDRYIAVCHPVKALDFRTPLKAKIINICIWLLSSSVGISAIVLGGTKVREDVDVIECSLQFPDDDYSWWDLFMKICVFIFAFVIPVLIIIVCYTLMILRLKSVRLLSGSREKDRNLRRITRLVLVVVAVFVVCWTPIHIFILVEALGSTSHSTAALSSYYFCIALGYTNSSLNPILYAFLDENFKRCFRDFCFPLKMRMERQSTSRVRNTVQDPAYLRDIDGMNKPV
Procedure: (§5) Radioligand displacement was measured using scintillation proximity assays (SPA).
(§6) Briefly, serial dilutions of the test compounds were placed in a 96-well plate to which were added SPA beads, membrane and radioligand. The assay conditions for each opioid receptor subtype are described in Table 10 below. The plates were incubated for 8 hours-overnight at room temperature, spun at 1000 rpm to pellet the SPA beads, and radioactivity was measured using the TopCount® microplate Scintillation counter. Specific binding at each concentration of test compound was calculated by subtracting the non-specific binding measured in the presence of excess cold ligand. IC50 values were obtained by non-linear regression of specific binding versus concentration curves and Ki values were calculated using Kd values that were experimentally pre-determined for each lot of membrane preparations.

human mu opioid receptor [5] = target: T1, human mu opioid receptor; experiment: biochemical; assay type: binding; settings: CHO-K1 membranes, [3H]DAMGO 6 nM; read-out: Ki, Mu opioid receptor
Procedure: as §5, §6

Male CD-1 mice = experiment: Assessment of CNS side effects in mice (Straub tail, muscle rigidity, pinna reflex); settings: for Loss Pinna, number of animals responding (N=2) / Muscle Rigidity, number of animals responding (N=2) / Straub Tail Effect, number of animals responding (N=2): oral
From the text: The objective of this study was to provide an approximation of the side effect profile of various oligomeric conjugates for comparison to the parent compounds by measuring various gross behavioral and physiological signs following administration of compound.
Additional evaluations included muscle rigidity and pinna reflex.
Male CD-1 mice from Charles River Laboratories, Raleigh, N.C., weighing from 16-18 grams were maintained on a regular light/dark cycle (lights on 0600-1800) with ad libitum food and water for 1 week before commencement of testing. N=2 per treatment condition, i.e., separate mice for each dose of each test article, injection was performed via a 25-gauge ⅝-inch needle on a 1-mL tuberculin syringe for the s.c. route and a 22-gauge stainless steel mouse feeding tube for the p.o. route (Becton, Dickinson & Co., Franklin Lakes, N.J.). Each treatment condition was divided about evenly between two observers. […] Test article was administered (s.c. or p.o., and the mouse was placed immediately in the observation chamber). One-half, 1, 2, and 3 hours later, the animal was observed undisturbed for gross signs such as locomotor ataxia, tremor, hyperactivity, hypoactivity, convulsions, hindlimb splay, and Straub tail, and then removed and assessed for muscle tone (normal, rigid, flaccid), pinna reflex (presence or absence), righting reflex (intact or lost), and placing (whether or not the forepaws are extended when the mouse is placed near a surface).
Each of the tables show the number of animals responding at each dose, where N=2. […] A bolded value indicates the lowest dose at which a response was detected.

squirrel monkeys = experiment: Monkey self-administration model of addictive potential; settings: for injection lever responses (% ILR): 0.03 mg/kg/injection
From the text: Dose-related effects of the test articles were examined, using two or more doses of each drug in 3-4 subjects in a double alternation schedule in which each unit dose (or vehicle) was used in two consecutive sessions before a change in unit dose.
Addictive potential of opioid compounds and opioid conjugates of the invention may be assessed through the use of squirrel monkey models as known in the art.
Under the double alternation schedule, each unit dose (or vehicle) was available for intravenous self-administration for two consecutive sessions before the unit dose was changed. In this way, it was possible to establish the function relating unit dose of intravenous drug to (i) number of injections per session, and/or (ii) the percentage of total responses that occur on the lever leading to self-administration (injection-lever responding, % ILR). Unit doses of drugs ranged from 0.01 to 3.2 mg/kg/injection.

mice = experiment: Oral dose giving maximal analgesia; assay type: in vivo
[6] = target: T2, human kappa opioid receptor; experiment: cell-based; settings: maximal response at the highest tested concentration; read-out: % max effect, kappa opioid receptor
Procedure: as §3, §4

[7] = hydroxycodone series, 5.0 mg/kg oral, Mean ± SD
[8] = hydroxycodone series, 1 mg/kg IV, Mean ± SD

For `COCCOCCOCCOCCOC1C=CC2C3Cc4ccc(OC)c5c4C2(CCN3C)C1O5` (stereo not drawn) [α-6-mPEG4-O-codeine], the AUC ([1]; po, 5 mg/kg) was 42.2 ng·h/mL, the AUC(0-inf) ([1]; po, 5 mg/kg) was 44.5 ng·h/mL and the MRT last ([1]; po, 5 mg/kg) was 1.4 h. It also gave a bioavailability ([1]; po, 5 mg/kg) of 3.47%, a Cmax ([1]; po, 5 mg/kg) of 31.1 ± 13.1 ng/mL and a half-life ([1]; po, 5 mg/kg, read-out: T1/2(2)) of 118 ± 60 min. It also gave a Tmax ([1]; po, 5 mg/kg) of 0.25 h, an AUC ([2]; iv, 1 mg/kg) of 253 ng·h/mL and an AUC(0-inf) ([2]; iv, 1 mg/kg) of 257 ng·h/mL. The MRT last ([2]; iv, 1 mg/kg) was 27.5 min, the clearance ([2]; iv, 1 mg/kg) was 65.9 ± 10.4 mL/min/kg and the Cmax ([2]; iv, 1 mg/kg) was 746 ± 70 ng/mL. It also gave a half-life ([2]; iv, 1 mg/kg, read-out: T1/2(2)) of 57.1 ± 43.8 min, a Vd ([2]; iv, 1 mg/kg) of 2.3 ± 0.72 L/kg and an Emax (human mu opioid receptor [3]) of 99%. For the same compound, the EC50 (human mu opioid receptor [3]) was 22.1 µM, the Ki [4] was 97 µM and the Ki (human mu opioid receptor [5]) was 2890 nM.

With `CN1CC[C@]23c4c5ccc(O)c4O[C@H]2[C@@H](O)C=C[C@H]3[C@H]1C5` [Morphine, morphine, reference compound] the “mice showing the straub tail response” value (Male CD-1 mice; oral doses up to 100 mg/kg) was 100%, the “Loss Pinna, number of animals responding (N=2)” value (“Loss Pinna, number” for short) (Male CD-1 mice; 1 mg/kg) was 0 and the “Muscle Rigidity, number of animals responding (N=2)” value (“Muscle Rigidity, number” below) (Male CD-1 mice; 1 mg/kg) was 0. For the same compound, the “Straub Tail Effect, number of animals responding (N=2)” value (“Straub Tail Effect, number” below) (Male CD-1 mice; 1 mg/kg) was 0, the “Loss Pinna, number” value (Male CD-1 mice; 3 mg/kg) was 2 and the “Muscle Rigidity, number” value (Male CD-1 mice; 3 mg/kg) was 0. The “Straub Tail Effect, number” value (Male CD-1 mice; 3 mg/kg) was 2, the “Loss Pinna, number” value (Male CD-1 mice; 10 mg/kg) was 1 and the “Muscle Rigidity, number” value (Male CD-1 mice; 10 mg/kg) was 1. For the same compound, the “Straub Tail Effect, number” value (Male CD-1 mice; 10 mg/kg) was 2, the “Loss Pinna, number” value (Male CD-1 mice; 30 mg/kg) was 2 and the “Muscle Rigidity, number” value (Male CD-1 mice; 30 mg/kg) was 2. For the same compound, the “Straub Tail Effect, number” value (Male CD-1 mice; 30 mg/kg) was 2, the “Loss Pinna, number” value (Male CD-1 mice; 100 mg/kg) was 2 and the “Muscle Rigidity, number” value (Male CD-1 mice; 100 mg/kg) was 2. For the same compound, the “Straub Tail Effect, number” value (Male CD-1 mice; 100 mg/kg) was 1, the “Loss Pinna, number” value (Male CD-1 mice; 300 mg/kg) was 2 and the “Muscle Rigidity, number” value (Male CD-1 mice; 300 mg/kg) was 2. The “Straub Tail Effect, number” value (Male CD-1 mice; 300 mg/kg) was 1, the “injection lever responses (% ILR)” value (squirrel monkeys) was 100% and the “subjects showing addictive behavior” value (squirrel monkeys; 0.1 mg/kg/injection) was 100%. The “oral dose at which maximal analgesia was obtained” value (mice) was 20 mg/kg.

With `COCCOCCOCCOCCOCCOCCOCCOC1CCC2(O)C3Cc4ccc(OC)c5c4C2(CCN3C)C1O5` (stereo not drawn) [α-6-mPEG7-O-hydroxycodone, α-6-mPEG7-O-oxycodone] the “Straub Tail, fold difference relative to parent compound” value (Male CD-1 mice; PO, 1/2 responding) was 30 fold, the “Loss Pinna, fold difference relative to parent compound” value (Male CD-1 mice; PO, 2/2 responding) was 30 fold and the “Muscle Rigidity, fold difference relative to parent compound” value (Male CD-1 mice; PO, 2/2 responding) was 30 fold. The “Straub Tail, fold difference relative to parent compound” value (Male CD-1 mice; PO, 2/2 responding) was 100 fold, the “Muscle Rigidity, fold difference relative to parent compound” value (Male CD-1 mice; SC, 1/2 responding) was over 300 fold and the “Straub Tail, fold difference relative to parent compound” value (Male CD-1 mice; SC, 1/2 responding) was 10 fold. For the same compound, the “Loss Pinna, fold difference relative to parent compound” value (Male CD-1 mice; SC, 2/2 responding) was 100 fold, the “Muscle Rigidity, fold difference relative to parent compound” value (Male CD-1 mice; SC, 2/2 responding) was 30 fold and the “Straub Tail, fold difference (reduction in CNS activity) relative to parent compound” value (Male CD-1 mice; SC, 2/2 responding) was 10 fold. The bioavailability ([1]; po, 5 mg/kg) was 28.1%, the AUC [1, 7] was 340 ng·h/mL and the MRT last [1, 7] was 2.97 h. The AUC(0-inf) ([1]; hydroxycodone series, 5.0 mg/kg oral, Mean ± SD, * n = 2) was 370 ng·h/mL, the half-life ([1]; hydroxycodone series, 5.0 mg/kg oral, Mean ± SD, * n = 2, read-out: T1/2(z)) was 115 ± 29.2 min and the Cmax [1, 7] was 114 ± 38 ng/mL. For the same compound, the Tmax ([1]; hydroxycodone series, 5.0 mg/kg oral, median value) was 2 h, the “injection lever responses (% ILR)” value (squirrel monkeys) was “only food lever responses” and the AUC [2, 8] was 238 ng·h/mL. For the same compound, the AUC(0-inf) [2, 8] was 263 ng·h/mL, the MRT last [2, 8] was 54.3 min and the clearance [2, 8] was 63.3 ± 2.99 mL/min/kg. For the same compound, the Cmax [2, 8] was 489 ± 26.5 ng/mL, the half-life ([2]; hydroxycodone series, 1 mg/kg IV, Mean ± SD, read-out: T1/2(z)) was 87 ± 3.25 min and the Vd [2, 8] was 5.31 ± 0.139 L/kg. For the same compound, the Emax (human mu opioid receptor [3]) was 101%, the EC50 (human mu opioid receptor [3]) was 7.45 µM and the Ki (human mu opioid receptor [5]) was 1610 nM.

With `COCCOCCOCCOCCOCCOCCOC1C=CC2C3Cc4ccc(OC)c5c4C2(CCN3C)C1O5` (stereo not drawn) [α-6-mPEG6-O-codeine] the Emax [6] was 21%, the Emax (human mu opioid receptor [3]) was 80% and the EC50 (human mu opioid receptor [3]) was 97.4 µM. For the same compound, the Ki [4] was over 160 µM and the Ki (human mu opioid receptor [5]) was 14200 nM.
